Measured values as given in ChEMBL document CHEMBL3779782, “Identification of human telomerase inhibitors having the core of N-acyl-4,5-dihydropyrazole with anticancer effects” (Bioorg Med Chem Lett, 2016).

Legend:
HepG2 = assay: Antiproliferative activity against human HepG2 cells after 48 hrs by MTT assay; format: functional, cell-based; conditions: HepG2, 48 h
[1] = Antiproliferative activity against human SGC7901 cells after 48 hrs by MTT assay; format: functional, cell-based; conditions: SGC-7901, 48 h
[2] = Antiproliferative activity against human MGC803 cells after 48 hrs by MTT assay; format: functional, cell-based; conditions: MGC-803, 48 h
[3] = target: Telomerase reverse transcriptase (Homo sapiens, UniProt O14746); assay: Inhibition of telomerase in human MGC803 cells after 24 hrs by TRAP-PCR-ELISA method; format: cell-based, MGC-803
Telomerase reverse transcriptase, sequence (O14746 whole entry): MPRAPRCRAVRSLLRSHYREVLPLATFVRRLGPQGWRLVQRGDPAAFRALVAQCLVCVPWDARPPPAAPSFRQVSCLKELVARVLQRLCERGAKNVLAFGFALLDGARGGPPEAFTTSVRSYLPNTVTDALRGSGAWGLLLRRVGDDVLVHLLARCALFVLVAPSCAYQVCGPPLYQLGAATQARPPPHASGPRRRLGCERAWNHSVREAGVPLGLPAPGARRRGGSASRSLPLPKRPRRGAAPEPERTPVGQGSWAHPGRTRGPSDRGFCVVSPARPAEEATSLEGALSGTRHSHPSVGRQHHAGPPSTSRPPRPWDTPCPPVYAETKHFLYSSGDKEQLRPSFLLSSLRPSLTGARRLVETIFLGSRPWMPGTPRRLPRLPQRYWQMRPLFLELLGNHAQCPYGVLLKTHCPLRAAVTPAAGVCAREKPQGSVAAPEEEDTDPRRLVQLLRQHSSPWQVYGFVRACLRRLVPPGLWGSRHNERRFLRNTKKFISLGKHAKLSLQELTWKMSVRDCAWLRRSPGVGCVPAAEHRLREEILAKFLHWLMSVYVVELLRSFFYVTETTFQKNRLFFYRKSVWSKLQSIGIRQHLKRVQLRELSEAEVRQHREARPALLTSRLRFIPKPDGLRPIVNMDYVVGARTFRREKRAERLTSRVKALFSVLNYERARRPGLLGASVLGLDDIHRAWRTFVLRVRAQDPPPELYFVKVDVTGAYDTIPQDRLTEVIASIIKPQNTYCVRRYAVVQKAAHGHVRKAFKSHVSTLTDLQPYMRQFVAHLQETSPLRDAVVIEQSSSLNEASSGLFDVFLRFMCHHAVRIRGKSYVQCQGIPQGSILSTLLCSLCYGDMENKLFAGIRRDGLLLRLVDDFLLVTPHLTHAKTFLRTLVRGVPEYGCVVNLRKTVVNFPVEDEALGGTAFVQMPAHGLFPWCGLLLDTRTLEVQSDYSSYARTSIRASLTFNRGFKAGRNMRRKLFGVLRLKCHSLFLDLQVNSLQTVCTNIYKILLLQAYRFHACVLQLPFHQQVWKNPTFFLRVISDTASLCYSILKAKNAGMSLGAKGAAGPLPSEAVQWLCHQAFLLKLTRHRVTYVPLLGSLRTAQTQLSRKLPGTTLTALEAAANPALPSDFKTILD

For `CC1=NN(S(=O)(=O)c2ccccc2C)C(c2cc(Br)ccc2O)C1` (stereo not given), which EC50 (HepG2) is on record?
The EC50 was 39.3 µM.

And the EC50 [1]?
Its EC50 is 48.1 µM.

And the EC50 [2]?
The EC50 was over 60 µM.

With `COc1ccc(C(=O)N2N=C(C)CC2c2ccccc2O)cc1` (stereo not given) as the compound, how does the IC50 [3] read?
Its IC50 is 25 µM.

What about the EC50 (HepG2) of the same compound?
The EC50 was 40.3 µM.

And the EC50 [1]?
The EC50 was 45.7 µM.

What about the EC50 [2] of the same compound?
The EC50 was 38.5 µM.

For `CC1=NN(S(=O)(=O)c2ccc(Cl)cc2Cl)C(c2cc(Br)ccc2O)C1` (stereo not given), which EC50 (HepG2) is on record?
The EC50 was 45.2 µM.

And the EC50 [1]?
Its EC50 is over 60 µM.

What about the EC50 [2] of the same compound?
Its EC50 is 37.9 µM.

Which IC50 [3] does the source give for `CC1=NN(C(=O)CF)C(c2ccccc2O)C1` (stereo not given) here?
Its IC50 is 4 µM.

And the EC50 (HepG2)?
Its EC50 is 9.41 µM.

And the EC50 [1]?
Its EC50 is 8.6 µM.

And the EC50 [2]?
Its EC50 is 4.26 µM.

Which EC50 (HepG2) does the source give for `CC1=NN(S(=O)(=O)c2ccccc2I)C(c2cc(Br)ccc2O)C1` (stereo not given) here?
Its EC50 is over 60 µM.

And the EC50 [1]?
The EC50 was over 60 µM.

What about the EC50 [2] of the same compound?
The EC50 was 52.5 µM.

For `COc1ccc(S(=O)(=O)N2N=C(C)CC2c2cc(Br)ccc2O)cc1` (stereo not given), which EC50 (HepG2) is on record?
The EC50 was 38.2 µM.

What about the EC50 [1] of the same compound?
The EC50 was 21.1 µM.

What about the EC50 [2] of the same compound?
The EC50 was 20.3 µM.

With `CC1=NN(S(=O)(=O)c2ccc(C(F)(F)F)cc2)C(c2cc(Br)ccc2O)C1` (stereo not given) as the compound, how does the IC50 [3] read?
The IC50 was over 60 µM.

What about the EC50 (HepG2) of the same compound?
The EC50 was 22.1 µM.

What about the EC50 [1] of the same compound?
Its EC50 is 16.3 µM.

And the EC50 [2]?
The EC50 was 30 µM.

For `CC1=NN(C(=O)c2ccc(F)cc2)C(c2ccccc2O)C1` (stereo not given), which IC50 [3] is on record?
The IC50 was 29.8 µM.

What about the EC50 (HepG2) of the same compound?
Its EC50 is 39.2 µM.

And the EC50 [1]?
The EC50 was 50.3 µM.

And the EC50 [2]?
Its EC50 is 35.4 µM.

Which IC50 [3] does the source give for `CC[n+]1c(-c2ccccc2)c2cc(N)ccc2c2ccc(N)cc21` [HOMIDIUM BROMIDE] here?
The IC50 was 2.18 µM.

Which EC50 (HepG2) does the source give for `CC1=NN(S(=O)(=O)c2ccccc2)C(c2cc(Br)ccc2O)C1` (stereo not given) here?
The EC50 was over 60 µM.

What about the EC50 [1] of the same compound?
The EC50 was 55.6 µM.

What about the EC50 [2] of the same compound?
The EC50 was over 60 µM.

Which results are given for `CC1=NN(S(=O)(=O)c2ccc([N+](=O)[O-])cc2)C(c2cc(Br)ccc2O)C1` (stereo not given)?
EC50 (HepG2): > 60 µM; EC50 [1]: 27.3 µM; EC50 [2]: 22.2 µM

For `CC1=NN(S(=O)(=O)c2ccc(F)cc2)C(c2cc(Br)ccc2O)C1` (stereo not given), which EC50 (HepG2) is on record?
Its EC50 is 50.1 µM.

And the EC50 [1]?
Its EC50 is over 60 µM.

And the EC50 [2]?
Its EC50 is 15.5 µM.

With `CC1=NN(C(=O)CCl)C(c2cc(F)ccc2O)C1` (stereo not given) as the compound, how does the EC50 (HepG2) read?
The EC50 was 4.21 µM.

And the EC50 [1]?
Its EC50 is 7 µM.

And the EC50 [2]?
The EC50 was 6.87 µM.

Which EC50 (HepG2) does the source give for `CC1=NN(C(=O)CBr)C(c2ccccc2O)C1` (stereo not given) here?
The EC50 was 14.4 µM.

And the EC50 [1]?
The EC50 was 4.18 µM.

What about the EC50 [2] of the same compound?
The EC50 was 3.65 µM.

Which EC50 (HepG2) does the source give for `CC1=NN(C(=O)CCl)C(c2cc(Br)ccc2O)C1` (stereo not given) here?
The EC50 was 12.3 µM.

And the EC50 [1]?
The EC50 was 9.21 µM.

And the EC50 [2]?
Its EC50 is 10.5 µM.

With `CC1=NN(S(=O)(=O)c2ccc(Cl)cc2)C(c2cc(Br)ccc2O)C1` (stereo not given) as the compound, how does the EC50 (HepG2) read?
The EC50 was over 60 µM.

What about the EC50 [1] of the same compound?
The EC50 was over 60 µM.

What about the EC50 [2] of the same compound?
Its EC50 is over 60 µM.

Which EC50 (HepG2) does the source give for `O=c1[nH]cc(F)c(=O)[nH]1` [FLUOROURACIL] here?
Its EC50 is 2.21 µM.

And the EC50 [1]?
The EC50 was 7.03 µM.

What about the EC50 [2] of the same compound?
The EC50 was 3.35 µM.

Which IC50 [3] does the source give for `CC1=NN(C(=O)C(F)(F)F)C(c2ccccc2O)C1` (stereo not given) here?
Its IC50 is 1.86 µM.

What about the EC50 (HepG2) of the same compound?
The EC50 was 4.8 µM.

And the EC50 [1]?
Its EC50 is 2.06 µM.

What about the EC50 [2] of the same compound?
The EC50 was 2.89 µM.

For `CC1=NN(C(=O)CCl)C(c2cc(Cl)ccc2O)C1` (stereo not given), which EC50 (HepG2) is on record?
Its EC50 is 20.3 µM.

And the EC50 [1]?
The EC50 was 14 µM.

And the EC50 [2]?
The EC50 was 12.2 µM.
